# Reference: US11931325B2, “Hair-growth promoting composition and usage thereof” (Eaderm Co., Ltd., priority 2015, dated 2024)
# Key:
# ob/ob mouse = assay: Hair growth experiment using an iNOS inhibitor in shaved/depilated ob/ob mice; assay type: in vivo; conditions: for time until deposition of melanin pigments in the skin was observed: hair removed at 8 weeks of age, intraperitoneal in saline (10, 20 and 30 mg/kg for 1400W, L-NIL, BYK191023), time from start of administration; for area of hair growth compared to 1400W: 4 weeks
# Procedure: For this experiment, the ob/ob mouse purchased from Sankyo Labo Service Corporation was used. The whole back of the mouse was shaved using an electric shaver under anesthesia (mixed anesthesia of ketamine hydrochloride and xylazine hydrochloride) at 8 weeks of age, and the hair was removed with a commercially available depilatory cream (Epilat hair removal cream from Kracie Holdings, Ltd.). Administration or application of each iNOS inhibitor was carried out on the day the experiment began. The usage and dosage of the iNOS inhibitors used are as described below. Selective iNOS inhibitors, 1400W, L-NIL and BYK191023, were purchased from Tocris Bioscience and dissolved in saline solution, and each of them was administered intraperitoneally at 10 mg/kg, 20 mg/kg and 30 mg/kg. For the control group, saline solution was administered intraperitoneally. Consecutive administration for five days from Monday to Friday was continued for one month. A similarly selective iNOS inhibitor, aminoguanidine, was purchased from Tokyo Chemical Industry Co., Ltd. and dissolved in saline solution to 10% (w/v), and 100 μl was applied to the epilation area. For the control group, saline solution was used. Consecutive application for five days from Monday to Friday was continued for one month. The back was photographed once a week and observation was continued until 12 weeks of age. Every seven days from the start of the administration, the state of hair growth in the shaved area was rated using the hair growth score standard below.
# (Hair Growth Score Standard)
# 1=hair growth in less than 10% of the shaved area
# 2=hair growth in equal to or more than 10% and less than 20% of the shaved area
# 3=hair growth in equal to or more than 20% and less than 30% of the shaved area
# 4=hair growth in equal to or more than 30% and less than 40% of the shaved area
# 5=hair growth in equal to or more than 40% and less than 50% of the shaved area
# 6=hair growth in equal to or more than 50% and less than 60% of the shaved area
# 7=hair growth in equal to or more than 60% and less than 70% of the shaved area
# 8=hair growth in equal to or more than 70% and less than 80% of the shaved area
# 9=hair growth in equal to or more than 80% and less than 90% of the shaved area
# 10=hair growth in equal to or more than 90% of the shaved area
# [1] = test system: C3H mouse and C57BL/6 mouse; assay: Hair growth experiment using wild-type mice (application of aminoguanidine); assay type: in vivo; conditions: C3H and C57BL/6 mice, 10% (w/v) in saline, 100 μl applied to the epilation area, five days a week for three weeks
# Procedure: In this experiment, the same method as Example 2 was used, except that the C3H mouse and C57BL/6 mouse were used. The whole back of the mouse was shaved using an electric shaver under anesthesia (mixed anesthesia of ketamine hydrochloride and xylazine hydrochloride) at 8 weeks of age, and the hair was removed with a commercially available depilatory cream (Epilat hair removal cream from Kracie Holdings, Ltd.). Application of aminoguanidine was carried out on the day the experiment began. The usage and dosage of the aminoguanidine used are as described below. Aminoguanidine was purchased from Tokyo Chemical Industry Co., Ltd. and dissolved to 10% (w/v) in saline solution, and 100 μl was applied to the epilation area. For the control group, saline solution was used. Consecutive application for five days from Monday to Friday was continued for three weeks, and the back was photographed daily.
# [2] = 10% (w/v) in saline, 100 μl applied to the epilation area, time from start of application
compound,measurement,setting,value
CC(=N)NCc1cccc(CN)c1 [1400W],time until widespread hair growth was confirmed,"ob/ob mouse; intraperitoneal administration, five days a week for one month",four
N=C(N)NN [aminoguanidine],time until hair growth was confirmed,ob/ob mouse; [2],two
same,time until hair returned to almost the same as the original condition,ob/ob mouse; [2],four
same,time until widespread hair growth was confirmed,ob/ob mouse; [2],three
same,shortening of the telogen phase compared to the control group,[1],two to three
CC(=N)NCCCC[C@H](N)C(=O)O [L-NIL],time until deposition of melanin pigments in the skin was observed,ob/ob mouse; five days a week for one month,three
same,area of hair growth compared to 1400W,ob/ob mouse; intraperitoneal administration,less
COc1ccnc(CCc2nc3ncccc3[nH]2)c1 [BYK191023],time until deposition of melanin pigments in the skin was observed,ob/ob mouse; five days a week for one month,three
same,area of hair growth compared to 1400W,ob/ob mouse; intraperitoneal administration,less
